Where two headings read alike, the source gives them in different places.
Target: T1, human GluN1/GluN2B NMDA receptors (Homo sapiens, UniProt Q13224)
T1 construct: expressed in transfected cells
Experiment: Cell-based calcium flux (FLIPR) assay on cloned human NR1/NR2B ion channels expressed in mammalian cells (standard and HTS buffer variants);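 note: stable Tet-On inducible cell line, Ca2+ influx triggered by glutamate at about EC40 plus 10 µM glycine, fluorescent dye read-out over 5 min, normalized to control wells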

[1] = standard assay buffer (0.5 mM MgCl2 dye loading; 137 mM NaCl, 4 mM KCl assay buffer), human GluN1/GluN2B cells, read-out: NR2B IC50 (μM) standard assay
[2] = HTS assay buffer (1.5 mM MgCl2 in dye loading buffer; 150 mM NaCl, 3 mM KCl in assay buffer), human GluN1/GluN2B, read-out: NR2B IC50 (μM) HTS assay
[3] = standard assay buffer (0.5 mM MgCl2 in dye loading buffer; 137 mM NaCl, 4 mM KCl in assay buffer), human GluN1/GluN2B, read-out: NR2B IC50 (μM) standard assay

T1 sequence (Q13224 27-1484, other chains not shown): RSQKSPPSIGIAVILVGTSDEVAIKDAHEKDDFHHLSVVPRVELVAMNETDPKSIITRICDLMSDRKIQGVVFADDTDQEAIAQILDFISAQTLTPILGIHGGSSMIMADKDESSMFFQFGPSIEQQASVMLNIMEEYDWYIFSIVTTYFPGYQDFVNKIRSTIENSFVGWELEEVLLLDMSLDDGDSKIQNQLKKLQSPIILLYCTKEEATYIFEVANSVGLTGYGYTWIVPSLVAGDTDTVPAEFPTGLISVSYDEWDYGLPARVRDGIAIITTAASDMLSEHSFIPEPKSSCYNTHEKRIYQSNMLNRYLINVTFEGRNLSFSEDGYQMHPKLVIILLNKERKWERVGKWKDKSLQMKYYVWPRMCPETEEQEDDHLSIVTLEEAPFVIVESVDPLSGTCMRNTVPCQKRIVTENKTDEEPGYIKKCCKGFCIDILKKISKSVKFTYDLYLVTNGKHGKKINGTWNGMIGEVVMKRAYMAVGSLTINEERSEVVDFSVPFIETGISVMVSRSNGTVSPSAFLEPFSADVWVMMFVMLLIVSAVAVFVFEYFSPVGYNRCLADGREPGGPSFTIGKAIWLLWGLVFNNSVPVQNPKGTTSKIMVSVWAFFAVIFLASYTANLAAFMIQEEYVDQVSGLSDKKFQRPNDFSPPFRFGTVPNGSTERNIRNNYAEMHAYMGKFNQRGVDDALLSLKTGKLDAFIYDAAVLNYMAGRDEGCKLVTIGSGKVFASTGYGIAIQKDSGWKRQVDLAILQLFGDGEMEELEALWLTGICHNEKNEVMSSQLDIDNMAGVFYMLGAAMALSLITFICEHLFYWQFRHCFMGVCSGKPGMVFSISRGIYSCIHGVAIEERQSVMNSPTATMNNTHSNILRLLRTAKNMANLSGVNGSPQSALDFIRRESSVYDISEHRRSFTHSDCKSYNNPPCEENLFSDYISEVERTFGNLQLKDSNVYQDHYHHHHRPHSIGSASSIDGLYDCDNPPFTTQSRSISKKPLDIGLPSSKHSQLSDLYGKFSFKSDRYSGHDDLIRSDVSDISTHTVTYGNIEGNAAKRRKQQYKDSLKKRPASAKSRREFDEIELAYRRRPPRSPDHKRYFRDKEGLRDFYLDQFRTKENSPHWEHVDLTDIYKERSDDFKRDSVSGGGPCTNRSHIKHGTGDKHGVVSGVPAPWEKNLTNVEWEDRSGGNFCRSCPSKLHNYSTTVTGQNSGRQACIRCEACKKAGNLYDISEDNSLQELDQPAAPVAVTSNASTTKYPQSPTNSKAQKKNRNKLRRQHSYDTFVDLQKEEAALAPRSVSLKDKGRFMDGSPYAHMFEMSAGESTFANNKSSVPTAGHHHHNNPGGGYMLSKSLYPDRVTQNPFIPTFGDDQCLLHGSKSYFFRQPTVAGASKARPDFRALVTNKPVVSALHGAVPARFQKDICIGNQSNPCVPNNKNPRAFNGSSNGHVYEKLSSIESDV

Compound | IC50 [1] [µM] | IC50 [3] [µM] | also measured
Cc1cc(Cn2c(=O)[nH]c3ncc(-c4cccc(C(F)(F)F)c4)cc32)ccc1F [Example 221, 1-[(4-Fluoro-3-methyl-phenyl)methyl]-6-[3-(trifluoromethyl)phenyl]-3H-imidazo[4,5-b]pyridin-2-one] | 8.71 |  | 
COc1cc(F)ccc1-c1cnc2[nH]c(=O)n(CC(=O)NC3CC3)c2c1 [Example 452, N-Cyclopropyl-2-[6-(4-fluoro-2-methoxy-phenyl)-2-oxo-3H-imidazo[4,5-b]pyridin-1-yl]acetamide] |  |  | IC50 [2]: 0.071 µM
O=c1[nH]c2ncc(-c3cccc(C(F)(F)F)c3)cc2n1Cc1ccc(C(F)(F)F)nc1 [Example 257, 6-[3-(Trifluoromethyl)phenyl]-1-[[6-(trifluoromethyl)-3-pyridyl]methyl]-3H-imidazo[4,5-b]pyridin-2-one] | 1.46 |  | 
COc1cc(F)ccc1-c1cnc2[nH]c(=O)n(CC(=O)c3cccs3)c2c1 [Example 462, 6-(4-Fluoro-2-methoxy-phenyl)-1-[2-oxo-2-(2-thienyl)ethyl]-3H-imidazo[4,5-b]pyridin-2-one] |  | 0.255 | 
Cn1c(=O)n(Cc2csnn2)c2cc(-c3ccc(C(F)(F)F)s3)cnc21 [Example 568, 3-Methyl-1-(thiadiazol-4-ylmethyl)-6-[5-(trifluoromethyl)-2-thienyl]imidazo[4,5-b]pyridin-2-one] |  | 0.305 | 
Cc1ccc(Cn2c(=O)[nH]c3ncc(-c4cccc(C(F)(F)F)c4)cc32)cn1 [Example 235, 1-[(6-Methyl-3-pyridyl)methyl]-6-[3-(trifluoromethyl)phenyl]-3H-imidazo[4,5-b]pyridin-2-one] | 0.256 |  | 
Cc1cncc(Cn2c(=O)[nH]c3ncc(-c4ccc(F)c(C)c4F)cc32)c1 [Example 270, 6-(2,4-Difluoro-3-methyl-phenyl)-1-[(5-methyl-3-pyridyl)methyl]-3H-imidazo[4,5-b]pyridin-2-one] | 0.115 |  | 
Cc1c(F)ccc(-c2cnc3c(c2)n(Cc2cncc(F)c2)c(=O)n3C)c1F [Example 341, 6-(2,4-Difluoro-3-methyl-phenyl)-1-[(5-fluoro-3-pyridyl)methyl]-3-methyl-imidazo[4,5-b]pyridin-2-one] |  | 0.081 | 
Cn1cc(Cn2c(=O)n(C)c3ncc(-c4ccc(F)c(F)c4)cc32)nn1 [Example 549, 6-(3,4-Difluorophenyl)-3-methyl-1-[(1-methyltriazol-4-yl)methyl]imidazo[4,5-b]pyridin-2-one] |  | 0.467 | 
CCC(=O)Cn1c(=O)n(C)c2ncc(-c3cccc(C(F)(F)F)c3)cc21 [Example 388, 3-Methyl-1-(2-oxobutyl)-6-[3-(trifluoromethyl)phenyl]imidazo[4,5-b]pyridin-2-one] |  | 0.05 | 
Cn1c(=O)n(CC(=O)O)c2cc(-c3cccc(C(F)(F)F)c3)cnc21 [Example 137, 2-[3-Methyl-2-oxo-6-[3-(trifluoromethyl)phenyl]imidazo[4,5-b]pyridin-1-yl]Acetic Acid] | > 10 |  | 
COCCNC(=O)Cn1c(=O)[nH]c2ncc(-c3cccnc3)cc21 [Example 445, N-(2-Methoxyethyl)-2-[2-oxo-6-(3-pyridyl)-3H-imidazo[4,5-b]pyridin-1-yl]acetamide] |  |  | IC50 [2]: > 29 µM
COc1ccc(-c2cnc3[nH]c(=O)n(CC(=O)NC4CC4)c3c2)c(OC)c1 [Example 454, N-Cyclopropyl-2-[6-(2,4-dimethoxyphenyl)-2-oxo-3H-imidazo[4,5-b]pyridin-1-yl]acetamide] |  |  | IC50 [2]: 1.94 µM
Cc1cc(C)cc(-c2cnc3[nH]c(=O)n(Cc4ccccc4C#N)c3c2)c1 [Example 488, 2-[[6-(3,5-Dimethylphenyl)-2-oxo-3H-imidazo[4,5-b]pyridin-1-yl]methyl]benzonitrile] |  |  | IC50 [2]: 4.95 µM
Cn1c(=O)n(Cc2ccncn2)c2cc(-c3cccc(C(F)(F)F)c3)cnc21 [Example 246, 3-Methyl-1-(pyrimidin-4-ylmethyl)-6-[3-(trifluoromethyl)phenyl]imidazo[4,5-b]pyridin-2-one] | 0.349 |  | 
O=c1[nH]c2ncc(-c3cccc(C(F)(F)F)c3)cc2n1Cc1cnccn1 [Example 253, 1-(Pyrazin-2-ylmethyl)-6-[3-(trifluoromethyl)phenyl]-3H-imidazo[4,5-b]pyridin-2-one] | 0.066 |  | 
Cc1cc(-c2cnc3[nH]c(=O)n(Cc4ccn(C)n4)c3c2)ccc1F [Example 129, 6-(4-Fluoro-3-methyl-phenyl)-1-[(1-methylpyrazol-3-yl)methyl]-3H-imidazo[4,5-b]pyridin-2-one] | 0.394 |  | 
Cn1c(=O)n(CC(=O)N2CCC2)c2cc(-c3ccc(F)c(F)c3)cnc21 [Example 422, 1-[2-(Azetidin-1-yl)-2-oxo-ethyl]-6-(3,4-difluorophenyl)-3-methyl-imidazo[4,5-b]pyridin-2-one] |  | 0.01 | 
Cn1c(=O)n(Cc2cnccn2)c2cc(-c3cccc(C(F)(F)F)c3)cnc21 [Example 249, 3-Methyl-1-(pyrazin-2-ylmethyl)-6-[3-(trifluoromethyl)phenyl]imidazo[4,5-b]pyridin-2-one] | 0.253 |  | 

Compound | IC50 [1] [µM] | IC50 [3] [µM] | also measured
Cc1noc(Cn2c(=O)n(C)c3ncc(-c4ccc(C(F)F)s4)cc32)n1 [Example 563, 6-[5-(Difluoromethyl)-2-thienyl]-3-methyl-1-[(3-methyl-1,2,4-oxadiazol-5-yl)methyl]imidazo[4,5-b]pyridin-2-one] |  | 0.316 | 
Cc1ccc(-c2cnc3c(c2)n(Cc2cn(C)nn2)c(=O)n3C)s1 [Example 553, 3-Methyl-6-(5-methyl-2-thienyl)-1-[(1-methyltriazol-4-yl)methyl]imidazo[4,5-b]pyridin-2-one] |  | 0.726 | 
Cn1cc(Cn2c(=O)n(C)c3ncc(-c4ccc(F)c(F)c4)cc32)cn1 [Example 550, 6-(3,4-Difluorophenyl)-3-methyl-1-[(1-methylpyrazol-4-yl)methyl]imidazo[4,5-b]pyridin-2-one] |  | 0.697 | 
Cn1c(=O)n(CC(=O)N2CC(F)C2)c2cc(-c3csc(C(F)(F)F)n3)cnc21 [Example 109, 1-[2-(3-Fluoroazetidin-1-yl)-2-oxo-ethyl]-3-methyl-6-[2-(trifluoromethyl)thiazol-4-yl]imidazo[4,5-b]pyridin-2-one] | 0.04 |  | 
O=C(Cn1c(=O)[nH]c2ncc(-c3ccc(F)c(Cl)c3)cc21)NC1CC1 [Example 448, 2-[6-(3-Chloro-4-fluoro-phenyl)-2-oxo-3H-imidazo[4,5-b]pyridin-1-yl]-N-cyclopropyl-acetamide] |  | 0.008 | 
Cn1c(=O)n(CC(=O)N2CC(F)C2)c2cc(-c3ccsc3C(F)(F)F)cnc21 [Example 92, 1-[2-(3-Fluoroazetidin-1-yl)-2-oxo-ethyl]-3-methyl-6-[2-(trifluoromethyl)-3-thienyl]imidazo[4,5-b]pyridin-2-one] | 0.249 |  | 
CCc1ccc(-c2cnc3c(c2)n(CC(=O)N(C)C)c(=O)n3C)s1 [Example 79, 2-[6-(5-Ethyl-2-thienyl)-3-methyl-2-oxo-imidazo[4,5-b]pyridin-1-yl]-N,N-dimethyl-acetamide] | 0.031 |  | 
O=C(Cn1c(=O)[nH]c2ncc(-c3cccc(C(F)(F)F)c3)cc21)NC1COC1 [Example 192, N-(Oxetan-3-yl)-2-[2-oxo-6-[3-(trifluoromethyl)phenyl]-3H-imidazo[4,5-b]pyridin-1-yl]acetamide] | 0.052 |  | 
CN(C)C(=O)Cn1c(=O)n(C)c2ncc(-c3ccc(F)c(OC(F)F)c3)cc21 [Example 587, 2-[6-[3-(Difluoromethoxy)-4-fluoro-phenyl]-3-methyl-2-oxo-imidazo[4,5-b]pyridin-1-yl]-N,N-dimethyl-acetamide] |  | 0.035 | 
Cc1cc(-c2cnc3[nH]c(=O)n(CC(=O)N(C)C)c3c2)sc1Cl [Example 321, 2-[6-(5-Chloro-4-methyl-2-thienyl)-2-oxo-3H-imidazo[4,5-b]pyridin-1-yl]-N,N-dimethyl-acetamide] |  | 0.014 | 
CCOC(=O)Cn1c(=O)n(C)c2ncc(-c3cccc(C(F)(F)F)c3)cc21 [Example 136, Ethyl 2-[3-methyl-2-oxo-6-[3-(trifluoromethyl)phenyl]imidazo[4,5-b]pyridin-1-yl]acetate] | 0.159 |  | 
CCC(=O)Cn1c(=O)n(C)c2ncc(-c3ccc(F)c(F)c3)cc21 [Example 390, 6-(3,4-Difluorophenyl)-3-methyl-1-(2-oxobutyl)imidazo[4,5-b]pyridin-2-one] |  | 0.019 | 
Cn1c(=O)n(CC(=O)N2CC(F)C2)c2cc(-c3cccc(Cl)c3)cnc21 [Example 406, 6-(3-Chlorophenyl)-1-[2-(3-fluoroazetidin-1-yl)-2-oxo-ethyl]-3-methyl-imidazo[4,5-b]pyridin-2-one] |  | 0.016 | 
COc1ccc(-c2cnc3[nH]c(=O)n(CC(=O)NC4CC4)c3c2)c(Cl)c1 [Example 37, 2-[6-(2-Chloro-4-methoxy-phenyl)-2-oxo-3H-imidazo[4,5-b]pyridin-1-yl]-N-cyclopropyl-acetamide] |  |  | IC50 (HTS assay buffer (1.5 mM MgCl2 dye loading; 150 mM NaCl, 3 mM KCl assay buffer), human GluN1/GluN2B cells, read-out: NR2B IC50 (μM) HTS assay): 1.38 µM
COc1ccc(-c2cnc3[nH]c(=O)n(CC4CC4)c3c2)cc1 [Example 471, 1-(Cyclopropylmethyl)-6-(4-methoxyphenyl)-3H-imidazo[4,5-b]pyridin-2-one] |  | 1.8 | 
O=c1[nH]c2ncc(-c3cc(F)cc(F)c3)cc2n1CCNCCO [Example 173, 6-(3,5-Difluorophenyl)-1-[2-(2-hydroxyethylamino)ethyl]-3H-imidazo[4,5-b]pyridin-2-one] | 4.26 |  | 
Cc1c(-c2cnc3[nH]c(=O)n(CC(=O)N4CCC4)c3c2)cccc1C(F)(F)F [Example 329, 1-[2-(Azetidin-1-yl)-2-oxo-ethyl]-6-[2-methyl-3-(trifluoromethyl)phenyl]-3H-imidazo[4,5-b]pyridin-2-one] |  | 0.75 | 
Cc1cc(C)cc(-c2cnc3[nH]c(=O)n(CCN4CC(F)C4)c3c2)c1 [Example 183, 6-(3,5-Dimethylphenyl)-1-[2-(3-fluoroazetidin-1-yl)ethyl]-3H-imidazo[4,5-b]pyridin-2-one] | 2.08 |  | 

Source: patent US11759455B2, “Substituted 1H-imidazo[4,5-b]pyridin-2(3H)-ones and their use as GLUN2B receptor modulators” (JANSSEN PHARMACEUTICA NV, priority 2016, dated 2023)
